Experimental data: ChEMBL document CHEMBL1152560, “Substituted 2-arylbenzothiazoles as kinase inhibitors: hit-to-lead optimization” (Bioorg Med Chem, 2009)

Key:
[1] = biological target: Serine/threonine-protein kinase Chk2 (Homo sapiens) (UniProt O96017); assay: Residual activity of CHK2 at 1 uM by microplate scintillation counting
[2] = biological target: T1, Eukaryotic translation initiation factor 2-alpha kinase 3 (Homo sapiens) (UniProt Q9NZJ5); assay: Residual activity of EIF2AK3 at 1 uM by microplate scintillation counting
T1 sequence (whole entry): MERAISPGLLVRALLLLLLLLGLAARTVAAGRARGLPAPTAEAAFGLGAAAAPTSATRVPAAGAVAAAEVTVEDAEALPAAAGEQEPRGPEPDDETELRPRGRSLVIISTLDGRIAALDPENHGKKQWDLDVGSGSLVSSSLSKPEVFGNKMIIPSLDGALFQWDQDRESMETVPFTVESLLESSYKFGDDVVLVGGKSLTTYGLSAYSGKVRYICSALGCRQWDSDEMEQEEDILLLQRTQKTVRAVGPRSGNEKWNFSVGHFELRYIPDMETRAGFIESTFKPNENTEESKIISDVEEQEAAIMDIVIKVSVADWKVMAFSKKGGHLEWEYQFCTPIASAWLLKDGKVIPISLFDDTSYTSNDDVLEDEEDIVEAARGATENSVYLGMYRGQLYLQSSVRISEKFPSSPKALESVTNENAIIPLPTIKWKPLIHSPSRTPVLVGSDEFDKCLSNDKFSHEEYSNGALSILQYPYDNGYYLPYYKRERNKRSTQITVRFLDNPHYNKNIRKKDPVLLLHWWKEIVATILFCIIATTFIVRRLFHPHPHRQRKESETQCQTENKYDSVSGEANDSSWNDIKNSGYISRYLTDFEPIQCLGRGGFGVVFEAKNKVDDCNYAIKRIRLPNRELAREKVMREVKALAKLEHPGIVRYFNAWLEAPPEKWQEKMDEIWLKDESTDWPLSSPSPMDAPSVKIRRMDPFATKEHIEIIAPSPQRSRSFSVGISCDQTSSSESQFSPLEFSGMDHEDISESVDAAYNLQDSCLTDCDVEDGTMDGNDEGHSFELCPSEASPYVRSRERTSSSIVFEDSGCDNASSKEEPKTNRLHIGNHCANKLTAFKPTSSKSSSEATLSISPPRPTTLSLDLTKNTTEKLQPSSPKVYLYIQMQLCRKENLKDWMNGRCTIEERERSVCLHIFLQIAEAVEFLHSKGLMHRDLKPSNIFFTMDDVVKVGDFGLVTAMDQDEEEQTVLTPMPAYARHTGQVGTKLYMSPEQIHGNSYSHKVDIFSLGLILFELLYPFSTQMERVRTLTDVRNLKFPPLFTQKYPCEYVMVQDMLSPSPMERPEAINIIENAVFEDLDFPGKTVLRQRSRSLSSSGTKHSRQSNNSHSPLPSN

[3] = biological target: T2, Ephrin type-A receptor 1 (Homo sapiens) (UniProt P21709); assay: Residual activity of EPHA1 at 1 uM by microplate scintillation counting
T2 sequence (whole entry): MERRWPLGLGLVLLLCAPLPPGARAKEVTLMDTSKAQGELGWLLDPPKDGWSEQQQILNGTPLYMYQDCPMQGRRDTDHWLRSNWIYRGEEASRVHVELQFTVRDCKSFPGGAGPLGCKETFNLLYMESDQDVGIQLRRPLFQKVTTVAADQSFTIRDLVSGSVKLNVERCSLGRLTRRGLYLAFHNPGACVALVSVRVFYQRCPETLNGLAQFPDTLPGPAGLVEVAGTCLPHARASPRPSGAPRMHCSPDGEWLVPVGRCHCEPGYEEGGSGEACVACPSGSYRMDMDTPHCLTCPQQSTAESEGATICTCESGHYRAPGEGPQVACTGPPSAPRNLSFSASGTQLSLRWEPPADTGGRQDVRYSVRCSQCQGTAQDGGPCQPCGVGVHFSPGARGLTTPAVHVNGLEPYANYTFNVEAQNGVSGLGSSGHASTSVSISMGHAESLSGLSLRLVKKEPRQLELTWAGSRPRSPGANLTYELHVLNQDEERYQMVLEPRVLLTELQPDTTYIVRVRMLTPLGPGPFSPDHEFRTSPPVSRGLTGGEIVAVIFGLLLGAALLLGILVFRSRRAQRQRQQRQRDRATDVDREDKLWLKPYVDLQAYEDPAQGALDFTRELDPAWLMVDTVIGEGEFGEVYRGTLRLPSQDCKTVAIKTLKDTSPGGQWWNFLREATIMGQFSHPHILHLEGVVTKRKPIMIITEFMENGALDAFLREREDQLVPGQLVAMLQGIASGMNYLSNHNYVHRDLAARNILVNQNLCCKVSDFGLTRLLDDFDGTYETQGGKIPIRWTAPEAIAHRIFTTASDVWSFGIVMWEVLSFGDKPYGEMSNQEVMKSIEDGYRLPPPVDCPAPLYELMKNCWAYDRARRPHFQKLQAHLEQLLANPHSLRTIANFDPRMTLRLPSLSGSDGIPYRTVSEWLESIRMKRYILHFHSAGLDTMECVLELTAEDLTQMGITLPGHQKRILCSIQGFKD

[4] = biological target: Fibroblast growth factor receptor 1 (Homo sapiens) (UniProt P11362); assay: Residual activity of wild type FGF-R1 at 1 uM by microplate scintillation counting
[5] = biological target: Fibroblast growth factor receptor 2 (Homo sapiens) (UniProt P21802); assay: Residual activity of FGFR2 at 1 uM by microplate scintillation counting
[6] = system: Mast/stem cell growth factor receptor Kit (Homo sapiens), P10721 [T670I]; assay: Residual activity of KIT T670I mutant at 1 uM by microplate scintillation counting
[7] = biological target: CDK9/cyclin T1 (Homo sapiens) (UniProt O60563+P50750); assay: Residual activity of CDK9/Cyclin T at 0.1 uM by microplate scintillation counting; type: protein-complex assay
[8] = biological target: Macrophage-stimulating protein receptor (Homo sapiens) (UniProt Q04912); assay: Residual activity of RON at 10 uM by microplate scintillation counting
[9] = biological target: Ribosomal protein S6 kinase alpha-4 (Homo sapiens) (UniProt O75676); assay: Residual activity of RPS6KA4 at 10 uM by microplate scintillation counting
[10] = biological target: Rho-associated protein kinase 2 (Homo sapiens) (UniProt O75116); assay: Residual activity of ROCK2 at 0.1 uM by microplate scintillation counting

Chain of Ribosomal protein S6 kinase alpha-4 (Homo sapiens) (O75676 whole entry, looked up): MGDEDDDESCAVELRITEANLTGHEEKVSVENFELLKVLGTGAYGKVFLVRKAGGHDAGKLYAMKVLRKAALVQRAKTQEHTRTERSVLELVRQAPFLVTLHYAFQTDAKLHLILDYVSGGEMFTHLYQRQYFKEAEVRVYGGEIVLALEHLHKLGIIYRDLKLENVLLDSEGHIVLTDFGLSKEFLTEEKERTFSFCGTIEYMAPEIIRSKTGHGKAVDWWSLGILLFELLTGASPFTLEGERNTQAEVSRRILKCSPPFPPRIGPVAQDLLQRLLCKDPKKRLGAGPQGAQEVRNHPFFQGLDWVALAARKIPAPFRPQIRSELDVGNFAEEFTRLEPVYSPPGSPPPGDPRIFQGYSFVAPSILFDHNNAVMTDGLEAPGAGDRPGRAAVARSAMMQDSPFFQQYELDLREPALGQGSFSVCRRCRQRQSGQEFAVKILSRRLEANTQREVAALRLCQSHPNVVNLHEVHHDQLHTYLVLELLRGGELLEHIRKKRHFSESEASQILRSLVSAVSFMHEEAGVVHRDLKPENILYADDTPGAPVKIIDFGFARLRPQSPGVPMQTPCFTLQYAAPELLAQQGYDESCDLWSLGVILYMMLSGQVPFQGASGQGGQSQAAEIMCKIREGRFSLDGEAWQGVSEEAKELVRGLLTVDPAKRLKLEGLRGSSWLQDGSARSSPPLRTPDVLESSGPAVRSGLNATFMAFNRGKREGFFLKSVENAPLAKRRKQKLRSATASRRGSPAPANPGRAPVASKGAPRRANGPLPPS
Chain of Mast/stem cell growth factor receptor Kit (Homo sapiens), P10721 [T670I] (P10721 whole entry T670I): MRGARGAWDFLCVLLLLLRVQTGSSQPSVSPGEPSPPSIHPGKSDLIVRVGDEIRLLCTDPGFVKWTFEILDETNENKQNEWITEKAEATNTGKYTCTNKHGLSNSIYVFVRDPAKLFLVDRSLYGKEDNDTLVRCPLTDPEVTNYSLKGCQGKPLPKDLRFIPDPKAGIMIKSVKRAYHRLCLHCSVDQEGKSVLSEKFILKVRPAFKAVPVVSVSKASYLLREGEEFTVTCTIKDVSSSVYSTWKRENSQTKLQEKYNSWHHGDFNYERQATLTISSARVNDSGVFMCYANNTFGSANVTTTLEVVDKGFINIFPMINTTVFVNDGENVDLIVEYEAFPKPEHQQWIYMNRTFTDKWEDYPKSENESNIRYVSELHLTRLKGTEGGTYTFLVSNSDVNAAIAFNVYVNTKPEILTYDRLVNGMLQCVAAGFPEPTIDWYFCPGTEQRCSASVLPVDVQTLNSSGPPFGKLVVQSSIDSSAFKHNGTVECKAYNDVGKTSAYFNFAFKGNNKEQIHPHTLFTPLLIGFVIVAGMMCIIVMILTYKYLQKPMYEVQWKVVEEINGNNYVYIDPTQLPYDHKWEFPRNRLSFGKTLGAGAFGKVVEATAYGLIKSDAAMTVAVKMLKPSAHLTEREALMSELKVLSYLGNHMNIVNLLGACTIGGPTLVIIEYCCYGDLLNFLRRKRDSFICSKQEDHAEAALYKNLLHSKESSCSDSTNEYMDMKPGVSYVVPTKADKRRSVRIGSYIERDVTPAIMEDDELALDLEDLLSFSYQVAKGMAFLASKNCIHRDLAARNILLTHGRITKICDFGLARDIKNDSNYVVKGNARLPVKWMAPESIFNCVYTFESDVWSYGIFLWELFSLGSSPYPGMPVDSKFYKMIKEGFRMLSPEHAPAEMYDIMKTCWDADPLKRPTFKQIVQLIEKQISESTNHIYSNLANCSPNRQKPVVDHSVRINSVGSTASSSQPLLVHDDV
Chain of Fibroblast growth factor receptor 2 (Homo sapiens) (P21802 22-821 limits assumed): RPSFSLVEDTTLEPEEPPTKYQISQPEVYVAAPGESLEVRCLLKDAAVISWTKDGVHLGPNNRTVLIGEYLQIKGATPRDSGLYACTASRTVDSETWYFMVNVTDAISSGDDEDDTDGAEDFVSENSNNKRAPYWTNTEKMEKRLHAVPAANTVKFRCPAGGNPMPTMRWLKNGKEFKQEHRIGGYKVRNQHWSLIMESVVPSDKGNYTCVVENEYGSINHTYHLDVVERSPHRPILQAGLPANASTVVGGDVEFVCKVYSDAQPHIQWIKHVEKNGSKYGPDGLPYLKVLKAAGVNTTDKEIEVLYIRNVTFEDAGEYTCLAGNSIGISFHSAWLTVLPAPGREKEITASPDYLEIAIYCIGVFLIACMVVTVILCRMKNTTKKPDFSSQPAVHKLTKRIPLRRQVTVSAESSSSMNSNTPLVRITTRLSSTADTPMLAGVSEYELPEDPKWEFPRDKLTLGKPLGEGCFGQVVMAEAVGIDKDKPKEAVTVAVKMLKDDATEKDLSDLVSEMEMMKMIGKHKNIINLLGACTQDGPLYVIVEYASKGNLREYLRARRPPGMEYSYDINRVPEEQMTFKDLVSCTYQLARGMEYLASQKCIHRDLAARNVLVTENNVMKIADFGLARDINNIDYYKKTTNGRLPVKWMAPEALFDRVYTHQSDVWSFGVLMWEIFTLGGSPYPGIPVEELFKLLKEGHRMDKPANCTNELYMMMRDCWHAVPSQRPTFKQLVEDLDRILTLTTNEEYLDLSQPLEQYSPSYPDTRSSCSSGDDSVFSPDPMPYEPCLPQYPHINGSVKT
Chain of Fibroblast growth factor receptor 1 (Homo sapiens) (P11362 22-822 limits assumed): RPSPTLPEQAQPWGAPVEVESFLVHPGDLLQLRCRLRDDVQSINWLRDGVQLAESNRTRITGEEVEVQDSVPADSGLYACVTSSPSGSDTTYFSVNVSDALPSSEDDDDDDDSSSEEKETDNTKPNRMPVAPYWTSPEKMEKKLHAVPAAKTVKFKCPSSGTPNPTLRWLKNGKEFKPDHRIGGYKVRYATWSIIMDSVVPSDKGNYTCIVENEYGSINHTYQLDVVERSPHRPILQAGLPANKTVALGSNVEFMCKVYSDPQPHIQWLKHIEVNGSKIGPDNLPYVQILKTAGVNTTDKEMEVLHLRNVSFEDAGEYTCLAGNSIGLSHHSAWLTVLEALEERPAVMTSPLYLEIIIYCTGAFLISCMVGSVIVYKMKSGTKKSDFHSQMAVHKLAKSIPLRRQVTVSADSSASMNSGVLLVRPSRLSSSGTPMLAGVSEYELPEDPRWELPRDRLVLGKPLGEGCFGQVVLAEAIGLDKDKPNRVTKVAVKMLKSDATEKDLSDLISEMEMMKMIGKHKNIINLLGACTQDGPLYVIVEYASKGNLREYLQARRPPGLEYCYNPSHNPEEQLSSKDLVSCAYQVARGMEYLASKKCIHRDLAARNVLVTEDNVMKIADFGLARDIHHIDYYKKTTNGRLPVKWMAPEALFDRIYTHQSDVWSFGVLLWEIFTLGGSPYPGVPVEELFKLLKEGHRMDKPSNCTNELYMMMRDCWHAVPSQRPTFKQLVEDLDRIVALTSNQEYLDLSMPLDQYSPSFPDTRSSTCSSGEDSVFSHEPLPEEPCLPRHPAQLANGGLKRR
Chain of Serine/threonine-protein kinase Chk2 (Homo sapiens) (O96017 whole entry): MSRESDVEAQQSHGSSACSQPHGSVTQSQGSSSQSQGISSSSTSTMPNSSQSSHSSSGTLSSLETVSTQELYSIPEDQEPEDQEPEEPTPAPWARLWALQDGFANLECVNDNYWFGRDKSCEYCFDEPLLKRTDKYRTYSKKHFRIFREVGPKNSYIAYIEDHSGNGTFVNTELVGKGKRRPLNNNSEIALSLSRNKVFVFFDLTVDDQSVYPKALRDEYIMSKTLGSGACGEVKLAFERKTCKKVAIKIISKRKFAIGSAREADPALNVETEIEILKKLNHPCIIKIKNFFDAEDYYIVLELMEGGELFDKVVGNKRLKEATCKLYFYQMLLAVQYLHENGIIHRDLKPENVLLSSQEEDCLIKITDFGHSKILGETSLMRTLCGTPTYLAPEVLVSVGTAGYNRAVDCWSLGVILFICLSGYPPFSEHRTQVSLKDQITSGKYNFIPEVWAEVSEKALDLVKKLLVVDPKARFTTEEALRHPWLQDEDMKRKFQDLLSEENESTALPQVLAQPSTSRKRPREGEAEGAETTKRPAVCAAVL

| residual activity [1] [%] | residual activity [2] [%] | residual activity [3] [%] | residual activity [4] [%] | residual activity [5] [%] | residual activity [6] [%] | residual activity [7] [%] | residual activity [8] [%] | residual activity [9] [%] | residual activity [10] [%] | Structure (SMILES) |
| --- | --- | --- | --- | --- | --- | --- | --- | --- | --- | --- |
| 75 | 102 | 147 | 126 | 107 | 73 | 94 | 53 | 162 | 119 | COc1cc2c(Oc3ccc(-c4nc5ccccc5s4)cc3)ncnc2cc1OCCCN1CCCC1 |
| 54 | 100 | 140 | 123 | 111 | 73 | 101 | 76 | 135 | 98 | COc1cc2c(Oc3ccc(-c4nc5ccccc5s4)cc3)ncnc2cc1OCCCN1CCN(C)CC1 |
| 51 | 90 | 145 | 115 | 120 | 65 | 91 | 55 | 142 | 82 | COc1cc2c(Oc3ccc(-c4nc5ccccc5s4)cc3F)ncnc2cc1OCCCN1CCN(C)CC1 |
